Source: patent US12528801B2 (Givaudan SA, priority 2019, dated 2026)

Target: T1, hTRPM8 (Homo sapiens, UniProt Q7Z2W7)
T1 construct: expressed in transfected cells
Assay: Assay on TRPM8 modulators: calcium imaging (Fluo-4, Flexstation) in HEK293 cell line stably expressing hTRPM8
Format: cell-based
Settings: HEK293 cells stably expressing hTRPM8; calcium influx, Fluo-4, Flexstation 3; sigmoidal dose-response fit
Method: A HEK293 cell line stably expressing hTRPM8 was generated according to Klein of at, (Chem. Senses 36: […], 2011) and receptor activation was monitored by calcium imaging in a Flexstation. For Ca-imaging assays of TRPM8 channel activation, cells were seeded on day 0 at a density of 12000 cells per well in Dulbecco's modified Eagle medium (DMEM) containing 9% foetal bovine serum in black, clear bottom 96-well plates that had been coated with 0.001% polyethyleneimine (molecular weight=60 000, Acros Organics). On day 2, agonists were evaluated via calcium imaging using Fluo-4. Briefly, growth medium was discarded, and the cells were incubated in the dark for 1 h at 37° C. in 50 μL loading buffer consisting of 2.7 μM Fluo-4 AM (Invitrogen) and […] probenecid (Sigma-Aldrich) in DMEM (without serum). After incubation, the plates were washed five times with 100 μL of assay buffer (in mM: 130 NaCl, 5 KCl, 10 HEPES, 2 CaCl2, and 10 glucose, pH7.4.) and further incubated in the dark at room temperature for 30 min. The cells were then washed five times with 100 μL assay buffer and then calcium influx to serial dilutions of inventive compounds were measured in a Flexstation 3 (Molecular Devices). Receptor activation was initiated following addition of 20 μl of a 10-fold concentrated ligand stock solution, which is also prepared in assay buffer. Fluorescence was continuously monitored for 15 seconds prior to ligand addition and for 105 seconds after ligand addition, for a total of 120 seconds. Maximal receptor activation in relation to solvent control and relative to 31.6 μM menthol is determined. Data from serial dilutions were processed with a KNIME workflow to fit a sigmoidal dose-response curve and to extrapolate […].

T1 sequence (Q7Z2W7 whole entry): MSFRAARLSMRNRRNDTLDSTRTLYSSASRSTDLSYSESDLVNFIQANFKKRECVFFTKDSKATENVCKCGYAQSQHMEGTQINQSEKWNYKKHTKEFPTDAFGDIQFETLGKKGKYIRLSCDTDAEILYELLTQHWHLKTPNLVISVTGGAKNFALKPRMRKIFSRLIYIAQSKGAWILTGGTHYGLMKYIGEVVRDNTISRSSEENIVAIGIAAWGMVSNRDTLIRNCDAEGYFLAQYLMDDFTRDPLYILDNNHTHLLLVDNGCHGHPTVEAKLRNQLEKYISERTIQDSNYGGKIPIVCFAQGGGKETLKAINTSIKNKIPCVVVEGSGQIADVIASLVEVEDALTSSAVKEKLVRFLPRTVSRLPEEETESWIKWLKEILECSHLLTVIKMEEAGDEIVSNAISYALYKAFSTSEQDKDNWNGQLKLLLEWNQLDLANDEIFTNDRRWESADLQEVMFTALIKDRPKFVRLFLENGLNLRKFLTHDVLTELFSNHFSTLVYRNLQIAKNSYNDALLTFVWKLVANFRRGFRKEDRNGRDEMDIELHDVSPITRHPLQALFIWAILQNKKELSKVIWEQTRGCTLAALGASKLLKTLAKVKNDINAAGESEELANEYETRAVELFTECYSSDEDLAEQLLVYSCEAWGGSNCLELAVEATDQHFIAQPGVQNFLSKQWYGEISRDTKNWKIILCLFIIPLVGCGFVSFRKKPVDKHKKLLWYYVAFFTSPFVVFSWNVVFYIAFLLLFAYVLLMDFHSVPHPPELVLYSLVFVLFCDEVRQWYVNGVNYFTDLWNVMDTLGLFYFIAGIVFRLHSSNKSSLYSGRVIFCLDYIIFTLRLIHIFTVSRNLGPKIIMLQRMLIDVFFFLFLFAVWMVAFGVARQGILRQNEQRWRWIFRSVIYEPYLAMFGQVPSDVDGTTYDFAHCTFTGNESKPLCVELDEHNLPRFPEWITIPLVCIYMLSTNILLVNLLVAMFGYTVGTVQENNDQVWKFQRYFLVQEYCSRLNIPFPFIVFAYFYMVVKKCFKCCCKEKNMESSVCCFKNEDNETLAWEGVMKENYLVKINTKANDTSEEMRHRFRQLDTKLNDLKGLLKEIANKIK

First: CSC(C)C(=O)N1CCCCC1c1nc(-c2ccc(CN3CCS(=O)(=O)CC3)cc2)c[nH]1 (stereo not shown) [Compound 30, 1-(2-(4-(4-((1,1-dioxidothiomorpholino)methyl)phenyl)-1H-imidazol-2-yl)piperidin-1-yl)-2-(methylthio)propan-1-one]
Second: CSC(C)C(=O)N1CCCCC1c1nc(-c2ccc(F)cc2)c[nH]1 (stereo not shown) [Compound 38, 1-(2-(4-(4-fluorophenyl)-1H-imidazol-2-yl)piperidin-1-yl)-2-(methylthio)propan-1-one]
The EC50 of the first is higher: 1000 to 35000 nM for the first, < 50 nM for the second.

First: CSC(C)C(=O)N1CCCCC1c1nc(-c2ccc(C(C)O)cc2)c[nH]1 (stereo not shown) [Compound 31, 1-(2-(4-(4-(1-hydroxyethyl)phenyl)-1H-imidazol-2-yl)piperidin-1-yl)-2-(methylthio)propan-1-one]
Second: CSC(C)C(=O)N1CCCCC1c1nc(-c2ccc(C(C)C)cc2)c[nH]1 (stereo not shown) [Compound 40, 1-(2-(4-(4-isopropylphenyl)-1H-imidazol-2-yl)piperidin-1-yl)-2-(methylthio)propan-1-one]
The EC50 of the first is higher: 50 to 300 nM for the first, < 50 nM for the second. The second is the more potent here.

Compared with `CSC(C)C(=O)N1CCCCC1c1nc(-c2ccc(OC(F)F)c(F)c2)c[nH]1` (stereo not shown) [Compound 32, 1-(2-(4-(4-(difluoromethoxy)-3-fluorophenyl)-1H-imidazol-2-yl)piperidin-1-yl)-2-(methylthio)propan-1-one], `CSC(C)C(=O)N1CCCCC1c1nc(-c2ccc(C)c(C(F)(F)F)c2)c[nH]1` (stereo not shown) [Compound 41, 1-(2-(4-(4-methyl-3-(trifluoromethyl)phenyl)-1H-imidazol-2-yl)piperidin-1-yl)-2-(methylthio)propan-1-one] is higher in EC50: < 50 nM for the first, 50 to 300 nM for the second.

Compared with `CSC(C)C(=O)N1CCCCC1c1nc(-c2cscc2C(F)F)c[nH]1` (stereo not shown) [Compound 33], `CSC(C)C(=O)N1CCCCC1c1nc(-c2ccc(C)o2)c[nH]1` (stereo not shown) [Compound 43, 1-(2-(4-(5-methylfuran-2-yl)-1H-imidazol-2-yl)piperidin-1-yl)-2-(methylthio)propan-1-one] is lower in EC50: 50 to 300 nM for the first, < 50 nM for the second.

Compared with `CSC(C)C(=O)N1CCCCC1c1nc(-c2ccc(S(C)(=O)=O)cc2)c[nH]1` (stereo not shown) [Compound 34, 1-(2-(4-(4-(methylsulfonyl)phenyl)-1H-imidazol-2-yl)piperidin-1-yl)-2-(methylthio)propan-1-one], `CSC(C)C(=O)N1CCCCC1c1nc(-c2ccc(O)cc2)c[nH]1` (stereo not shown) [Compound 39, 1-(2-(4-(4-hydroxyphenyl)-1H-imidazol-2-yl)piperidin-1-yl)-2-(methylthio)propan-1-one] is lower in EC50: 1000 to 35000 nM for the first, < 50 nM for the second.

First: CSC(C)C(=O)N1CCCCC1c1nc(-c2ccc(S(C)(=O)=O)cc2)c[nH]1 (stereo not shown) [Compound 35]
Second: CSC(C)C(=O)N1CCCCC1c1nc(-c2ccc(C)nc2)c[nH]1 (stereo not shown) [Compound 45, 1-(2-(4-(6-methylpyridin-3-yl)-1H-imidazol-2-yl)piperidin-1-yl)-2-(methylthio)propan-1-one]
The EC50 of the first is higher: 1000 to 35000 nM for the first, < 50 nM for the second. The second is the more potent here.

`CSC(C)C(=O)N1CCCCC1c1nc(-c2ccc(C3CCC3)cc2)c[nH]1` (stereo not shown) [Compound 36, 1-(2-(4-(4-cyclobutylphenyl)-1H-imidazol-2-yl)piperidin-1-yl)-2-(methylthio)propan-1-one] and `CSC(C)C(=O)N1CCCCC1c1nc(-c2ccc(C3CC3)cc2F)c[nH]1` (stereo not shown) [Compound 37, 1-(2-(4-(4-cyclopropyl-2-fluorophenyl)-1H-imidazol-2-yl)piperidin-1-yl)-2-(methylthio)propan-1-one] cannot be ordered by EC50: < 50 nM for the first, < 50 nM for the second.

Compared with `CSC(C)C(=O)N1CCCCC1c1nc(-c2ccc(CN(C)C)s2)c[nH]1` (stereo not shown) [Compound 42, 1-(2-(4-(5-((dimethylamino)methyl)thiophen-2-yl)-1H-imidazol-2-yl)piperidin-1-yl)-2-(methylthio)propan-1-one], `CSC(C)C(=O)N1CCCCC1c1nc(-c2ccc3ccsc3c2)c[nH]1` (stereo not shown) [Compound 46, 1-(2-(4-(benzo[b]thiophen-6-yl)-1H-imidazol-2-yl)piperidin-1-yl)-2-(methylthio)propan-1-one] is lower in EC50: 1000 to 35000 nM for the first, < 50 nM for the second. The second is the more potent here.

First: CSC(C)C(=O)N1CCCCC1c1nc(-c2cncc(C)c2)c[nH]1 (stereo not shown) [Compound 44, 1-(2-(4-(5-methylpyridin-3-yl)-1H-imidazol-2-yl)piperidin-1-yl)-2-(methylthio)propan-1-one]
Second: CSC(C)C(=O)N1CCCCC1c1ncc(-c2ccc(C)cc2F)[nH]1 (stereo not shown) [Compound 57, 1-(2-(5-(2-fluoro-4-methylphenyl)-1H-imidazol-2-yl)piperidin-1-yl)-2-(methylthio)propan-1-one]
The EC50 of the first is higher: 50 to 300 nM for the first, < 50 nM for the second.

Compared with `CSC(C)C(=O)N1CCCCC1c1nc(C)c(-c2ccccc2)[nH]1` (stereo not shown) [Compound 47, 1-(2-(4-methyl-5-phenyl-1H-imidazol-2-yl)piperidin-1-yl)-2-(methylthio)propan-1-one], `CSC(C)C(=O)N1CCCCC1c1ncc(-c2cccc(F)c2)[nH]1` (stereo not shown) [Compound 66, 1-(2-(5-(3-fluorophenyl)-1H-imidazol-2-yl)piperidin-1-yl)-2-(methylthio)propan-1-one] is lower in EC50: 50 to 300 nM for the first, < 50 nM for the second.

`O=C(CSC(F)(F)F)N1CCCCC1c1nc(-c2ccccc2)c[nH]1` (stereo not shown) [Compound 48, 1-(2-(4-phenyl-1H-imidazol-2-yl)piperidin-1-yl)-2-((trifluoromethyl)thio)ethan-1-one] and `CCC(=O)N1CCCCC1c1nc(-c2ccccc2)c[nH]1` (stereo not shown) [Compound 52, 1-(2-(4-phenyl-1H-imidazol-2-yl)piperidin-1-yl)propan-1-one] fall in the same range of EC50: 1000 to 35000 nM for the first, 1000 to 35000 nM for the second.

`CCCC(=O)N1CCCCC1c1nc(-c2ccccc2)c[nH]1` (stereo not shown) [Compound 49, 1-(2-(4-phenyl-1H-imidazol-2-yl)piperidin-1-yl)butan-1-one] and `C=CCCC(=O)N1CCCCC1c1nc(-c2ccccc2)c[nH]1` (stereo not shown) [Compound 51, 1-(2-(4-phenyl-1H-imidazol-2-yl)piperidin-1-yl)pent-4-en-1-one] fall in the same range of EC50: 300 to 1000 nM for the first, 300 to 1000 nM for the second.

First: C=CC=CCC(=O)N1CCCCC1c1nc(-c2ccccc2)c[nH]1 (stereo not shown) [Compound 50, 1-(2-(4-phenyl-1H-imidazol-2-yl)piperidin-1-yl)hexa-3,5-dien-1-one]
Second: C=CC(C)C(=O)N1CCCCC1c1ncc(-c2ccc(F)c(F)c2)[nH]1 (stereo not shown) [Compound 61, 1-(2-(5-(3,4-difluorophenyl)-1H-imidazol-2-yl)piperidin-1-yl)-2-methylbut-3-en-1-one]
The EC50 of the first is higher: 1000 to 35000 nM for the first, < 50 nM for the second.

First: CSC(C)C(=O)N1CCCCC1c1ncc(-c2cccc(F)c2F)[nH]1 (stereo not shown) [Compound 53, 1-(2-(5-(2,3-difluorophenyl)-1H-imidazol-2-yl)piperidin-1-yl)-2-(methylthio)propan-1-one]
Second: CSC(C)C(=O)N1CCCCC1c1ncc(-c2ccc(F)cc2F)[nH]1 (stereo not shown) [Compound 54, 1-(2-(5-(2,4-difluorophenyl)-1H-imidazol-2-yl)piperidin-1-yl)-2-(methylthio)propan-1-one]
The EC50 of the first is higher: 50 to 300 nM for the first, < 50 nM for the second.

`CSC(C)C(=O)N1CCCCC1c1ncc(-c2cc(F)ccc2F)[nH]1` (stereo not shown) [Compound 55, 1-(2-(5-(2,5-difluorophenyl)-1H-imidazol-2-yl)piperidin-1-yl)-2-(methylthio)propan-1-one] and `CSC(C)C(=O)N1CCCCC1c1ncc(-c2ccc(F)c(F)c2)[nH]1` (stereo not shown) [Compound 60, 1-(2-(5-(3,4-difluorophenyl)-1H-imidazol-2-yl)piperidin-1-yl)-2-(methylthio)propan-1-one] cannot be ordered by EC50: < 50 nM for the first, < 50 nM for the second.

First: COc1ccc(-c2cnc(C3CCCCN3C(=O)C(C)SC)[nH]2)c(F)c1 (stereo not shown) [Compound 56, 1-(2-(5-(2-fluoro-4-methoxyphenyl)-1H-imidazol-2-yl)piperidin-1-yl)-2-(methylthio)propan-1-one]
Second: COCc1ccc(-c2cnc(C3CCCCN3C(=O)C(C)SC)[nH]2)cc1F (stereo not shown) [Compound 64, 1-(2-(5-(3-fluoro-4-(methoxymethyl)phenyl)-1H-imidazol-2-yl)piperidin-1-yl)-2-(methylthio)propan-1-one]
The EC50 of the first is lower: < 50 nM for the first, 50 to 300 nM for the second.

First: COc1ncc(-c2cnc(C3CCCCN3C(=O)C(C)SC)[nH]2)cn1 (stereo not shown) [Compound 58, 1-(2-(5-(2-methoxypyrimidin-5-yl)-1H-imidazol-2-yl)piperidin-1-yl)-2-(methylthio)propan-1-one]
Second: COc1ccc(-c2cnc(C3CCCCN3C(=O)C(C)SC)[nH]2)cc1OC (stereo not shown) [Compound 62, 1-(2-(5-(3,4-dimethoxyphenyl)-1H-imidazol-2-yl)piperidin-1-yl)-2-(methylthio)propan-1-one]
The EC50 of the first is lower: 300 to 1000 nM for the first, 1000 to 35000 nM for the second. The first is the more potent here.

Compared with `CNc1cccc(-c2cnc(C3CCCCN3C(=O)C(C)SC)[nH]2)c1` (stereo not shown) [Compound 59, 1-(2-(5-(3-(methylamino)phenyl)-1H-imidazol-2-yl)piperidin-1-yl)-2-(methylthio)propan-1-one], `CSC(C)C(=O)N1CCCCC1c1ncc(-c2ccc(C)c(C)c2)[nH]1` (stereo not shown) [Compound 63, 1-(2-(5-(3,4-dimethylphenyl)-1H-imidazol-2-yl)piperidin-1-yl)-2-(methylthio)propan-1-one] is lower in EC50: 50 to 300 nM for the first, < 50 nM for the second.

With `CSC(C)C(=O)N1CCCCC1c1ncc(-c2ccc(C)c(F)c2)[nH]1` (stereo not shown) [Compound 65, 1-(2-(5-(3-fluoro-4-methylphenyl)-1H-imidazol-2-yl)piperidin-1-yl)-2-(methylthio)propan-1-one] the EC50 was < 50 nM.
